Data on one compound can be found in US11273166B2, “Methods and compositions for the treatment of obesity” (Monash University, priority 2017, dated 2022).

Assay [1] deals with PTP1B and TCPTP in the arcuate nucleus of the hypothalamus. Nature of the assay: Celastrol i.p. for 10 days in high fat fed Ptpn1fl/fl: Ptpn2fl/fl mice, rAAV-Cre-eGFP vs rAAV-eGFP in ARC. In kind it is in vivo, mouse. The settings on record: mice lacking PTP1B and TCPTP in the ARC; 20 μg/ml i.p., 10 consecutive days. How it is done:
FIG. 28 The ability of celastrol to promote weight loss in obese mice is abrogated in mice lacking PTP1B and TCPTP in the arcuate nucleus of the hypothalamus. 12-week high fat fed Ptpn1^fl/fl: Ptpn2^fl/fl male mice were bilateral injected with rAAV-eGFP or rAAV-Cre-eGFP into the arcuate nucleus of the hypothalamus (ARC). Two-week post AAV administration mice received Celastrol (20 μg/ml, i.p.) for 10 consecutive days and effects on a) Body weights, b) food intake, c-d) adiposity and lean mass (EchoMRI) was determined

The target of assay [2] is T1, PTP1B in the arcuate nucleus of the hypothalamus (Mus musculus, UniProt P35821).
T1 construct: endogenous in cells; host or cells: arcuate nucleus of the hypothalamus of living high fat fed Ptpn1fl/fl mice
T1 sequence (P35821 1-432): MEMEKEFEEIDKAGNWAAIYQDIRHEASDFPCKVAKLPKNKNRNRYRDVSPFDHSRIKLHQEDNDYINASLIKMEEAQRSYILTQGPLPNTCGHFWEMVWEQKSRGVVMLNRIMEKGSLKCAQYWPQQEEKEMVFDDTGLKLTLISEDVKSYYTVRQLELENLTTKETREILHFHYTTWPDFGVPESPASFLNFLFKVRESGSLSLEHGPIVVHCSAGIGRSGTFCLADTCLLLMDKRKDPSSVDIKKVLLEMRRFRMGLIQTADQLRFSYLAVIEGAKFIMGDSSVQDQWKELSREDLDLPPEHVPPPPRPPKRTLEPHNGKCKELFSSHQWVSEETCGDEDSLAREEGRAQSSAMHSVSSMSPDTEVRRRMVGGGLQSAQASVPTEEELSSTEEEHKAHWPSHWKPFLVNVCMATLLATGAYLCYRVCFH
Put plainly: Celastrol i.p. for 10 days in high fat fed Ptpn1fl/fl mice, rAAV-Cre-eGFP vs rAAV-eGFP in ARC. Format: in vivo. The settings on record: mice lacking PTP1B in the ARC; 20 μg/ml i.p., 10 consecutive days. As for the experimental part: FIG. 30. […] 12-week high fat fed Ptpn1^fl/fl male mice were bilateral injected with rAAV-eGFP or rAAV-Cre-eGFP into the arcuate nucleus of the hypothalamus (ARC). Two-week post AAV administration mice received Celastrol (20 μg/ml, i.p.) for 10 consecutive days and effects on a-b) Body weights, c-d) food intake, e-f) adiposity and lean mass (EchoMRI) was determined.

Assay [3] addresses T2, TCPTP in the arcuate nucleus of the hypothalamus (Mus musculus, UniProt Q06180).
T2 construct: endogenous in cells; host or cells: arcuate nucleus of the hypothalamus of living high fat fed Ptpn2fl/fl mice
T2 sequence (Q06180 1-406): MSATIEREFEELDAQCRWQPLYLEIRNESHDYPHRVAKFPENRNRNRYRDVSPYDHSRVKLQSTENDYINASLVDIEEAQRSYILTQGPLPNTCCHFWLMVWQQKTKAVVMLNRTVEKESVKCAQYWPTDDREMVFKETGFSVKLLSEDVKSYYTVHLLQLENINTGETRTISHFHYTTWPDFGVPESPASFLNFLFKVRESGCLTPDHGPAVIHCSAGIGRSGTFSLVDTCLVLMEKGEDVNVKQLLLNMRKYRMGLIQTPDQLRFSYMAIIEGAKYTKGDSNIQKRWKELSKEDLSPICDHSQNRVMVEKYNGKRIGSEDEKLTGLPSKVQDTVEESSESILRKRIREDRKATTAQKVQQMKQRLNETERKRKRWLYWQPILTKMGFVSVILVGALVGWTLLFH
Nature of the assay: Celastrol i.p. for 10 days in high fat fed Ptpn2fl/fl mice, rAAV-Cre-eGFP vs rAAV-eGFP in ARC. The settings on record: mice lacking TCPTP in the ARC; 20 ug/ml i.p., 10 consecutive days. Format: in vivo. As for the experimental part:
12-week high fat fed Ptpn2^fl/fl male mice were bilateral injected with rAAV-eGFP or rAAV-Cre-eGFP into the arcuate nucleus of the hypothalamus (ARC). Two-week post AAV administration mice received Celastrol (20 ug/ml, i.p.) for 10 consecutive days and effects on a-b) Body weights, b-c) food intake, e-f) adiposity and lean mass (EchoMRI) was determined.

Take `CC1=C(O)C(=O)C=C2C1=CC=C1[C@@]2(C)CC[C@@]2(C)[C@@H]3C[C@](C)(C(=O)O)CC[C@]3(C)CC[C@]12C` [celastrol]: the “ability to promote weight loss in obese mice” value in assay [1] is “abrogated”; in assay [2], “partially attenuated”; in assay [3], “partially attenuated”.
